This note sets out measurements from publication PMC11611271, “Rapid prediction of key residues for foldability by machine learning model enables the design of highly functional libraries with hyperstable constrained peptide scaffolds” (PLOS Computational Biology, 2024).

One test deals with HtrA1. The test can be described thus: phage spot ELISA on HtrA1. The format is binding. Particulars: for ELISA s/n: Spot ELISA signal/noise; for ELISA s/n / ELISA signal: Fig 9A; for ELISA signal: Spot ELISA. From the text: To determine the performance of the libraries for ligand discovery we chose a panel of eight protein targets, which have no structural homology and a wide mass range (Fig 7C). We screened these eight targets with solution panning strategy and two additional plate panning for CD8α/β and CD28, thus ten panning campaigns in total. We consider clones showing spot phage ELISA signal > 0.3 and signal/noise ratio > 2 as positive hits. […] We also obtained the NGS data for these screening and the ranking of clones for their enrichment along the rounds of screening was analyzed and considered the top-ranking clones as potential hits. Based on their sequence diversity we selected 16 potential hits spanning five protein targets for peptide synthesis in their linear form. Seven of these are hits with positive phage ELISA signal and nine were selected based on NGS ranking without spot ELISA available. Subsequently, we conducted in vitro folding experiments on these peptides in various buffers.
(§1) The 5ji4 libraries were constructed following the Kunkel mutagenesis method and the solution panning protocol was followed as previously described. After four to five rounds of binding selection, while eluted pool was subjected to NGS analysis, individual phage clones were also picked and analyzed with phage spot ELISA. Positive clones were subjected to SANGER sequencing.
Among these five hits, A7, which is the SANGER hit, was picked for affinity maturation. Following the same strategy, one soft- and one hard-randomization library was designed targeting the 5JI4 variable regions 1 and 2, respectively. Two libraries were each panned as previously described. Both phage spot ELISA coupled with SANGER sequencing and NGS analysis were applied after affinity maturation.

Another test relates to CD8α. The test can be described thus: phage spot ELISA on CD8α. The format is binding. Conditions: S3 Table sheet CD8α; for S/N: phage spot ELISA signal/noise; for ELISA: phage spot ELISA signal.
Source text: To determine the performance of the libraries for ligand discovery we chose a panel of eight protein targets, which have no structural homology and a wide mass range (Fig 7C). We screened these eight targets with solution panning strategy and two additional plate panning for CD8α/β and CD28, thus ten panning campaigns in total. We consider clones showing spot phage ELISA signal > 0.3 and signal/noise ratio > 2 as positive hits. At least one binding hit was discovered for nine out of the ten panning campaigns, surpassing the success rate of the best DCP scaffolds reported previously. We also obtained the NGS data for these screening and the ranking of clones for their enrichment along the rounds of screening was analyzed and considered the top-ranking clones as potential hits. Based on their sequence diversity we selected 16 potential hits spanning five protein targets for peptide synthesis in their linear form. Seven of these are hits with positive phage ELISA signal and nine were selected based on NGS ranking without spot ELISA available. Subsequently, we conducted in vitro folding experiments on these peptides in various buffers. We observed a strong propensity for spontaneous folding regardless of the buffer condition. All HCP hits tested successfully folded into three-disulfide-containing product within two days in a universal buffer system (PBS, pH 7.4, 50% DMSO) without the need for a redox pair, as shown in Fig 8A. The binding of these folded peptides to their respective target proteins was confirmed using SPR (Table 4 and S1 Data) and binding kinetics are exemplified by the high-affinity peptide 5ji4-CRD7-2 (see Fig 8B). Among seven selected ELISA-positive hits, all of them were successfully synthesized and in vitro folded with three disulfide bonds and five were proven to be validated binders by SPR (Table 4). Nine peptides selected from the NGS ranking were synthesized and folded with the expected number of disulfide bonds and five of them bound to their target with affinities in the μM range as determined by SPR (Table 4). In general, binding affinities for these SPR-validated initial hits are weak, with Kd values in the micromolar range and fast on- and off-rates. There are two exceptions with binding affinities in the nanomolar range.
as §1
Background: In an ELISA, binding on a coated surface is turned into a signal by an enzyme label.

Where a SMILES comes first, the peptide text is derived from it. Bridges are numbered along the chain shown (N, C = ends).

As for `CSCC[C@@H]1NC(=O)[C@H](CO)NC(=O)[C@@H]2CSSC[C@H](NC(=O)[C@H](CCC(=O)O)NC(=O)[C@H](C)NC(=O)[C@H](CO)NC(=O)[C@H](CO)NC(=O)[C@H]([C@@H](C)O)NC(=O)[C@H](CCSC)NC(=O)[C@H](Cc3ccccc3)NC(=O)[C@H]([C@@H](C)O)NC(=O)[C@H](Cc3c[nH]c4ccccc34)NC(=O)CNC(=O)[C@@H]3CCCN3C(=O)[C@H](CC(C)C)NC1=O)C(=O)N[C@@H](CCC(=O)O)C(=O)N[C@@H](CCCNC(=N)N)C(=O)N[C@@H](CC(C)C)C(=O)N[C@H]1CSSC[C@H](NC(=O)[C@H]([C@@H](C)O)NC(=O)[C@H](CCCNC(=N)N)NC(=O)[C@H](CC(C)C)NC(=O)CNC(=O)[C@H](CC(C)C)NC(=O)[C@H](CCCNC(=N)N)NC(=O)[C@H](CC(=O)O)NC1=O)C(=O)N[C@@H](CCCNC(=N)N)C(=O)N[C@@H](C(C)C)C(=O)N[C@@H](Cc1c[nH]cn1)C(=O)N[C@H](C(=O)NCC(=O)O)CSSC[C@H](NC(=O)[C@@H]1CCCN1)C(=O)N[C@@H](CCC(=O)O)C(=O)N2` [5ji4_A7.B7B2] (H-PCECSMLPGWTFMTSSAECERLCDRLGLRTCRVHCG-OH; disulfide 2-35, 4-19, 23-31), in the test on HtrA1, the ELISA s/n came out at 7.2 and the ELISA signal came to 3.54.
On to `CC[C@H](C)[C@@H]1NC(=O)[C@H]([C@@H](C)O)NC(=O)[C@@H]2CSSC[C@H](NC(=O)[C@H](CCC(=O)O)NC(=O)[C@H](C)NC(=O)[C@H](CO)NC(=O)[C@H](CO)NC(=O)[C@H]([C@@H](C)O)NC(=O)[C@H](CC(C)C)NC(=O)[C@H](Cc3ccccc3)NC(=O)[C@H](Cc3c[nH]cn3)NC(=O)[C@H](Cc3c[nH]c4ccccc34)NC(=O)CNC(=O)[C@@H]3CCCN3C(=O)[C@H](CC(C)C)NC1=O)C(=O)N[C@@H](C)C(=O)N[C@@H](CCCNC(=N)N)C(=O)N[C@@H](CC(C)C)C(=O)N[C@H]1CSSC[C@H](NC(=O)[C@H]([C@@H](C)O)NC(=O)[C@H](CCCNC(=N)N)NC(=O)[C@H](CC(C)C)NC(=O)CNC(=O)[C@H](CC(C)C)NC(=O)[C@H](CCCNC(=N)N)NC(=O)[C@H](CC(=O)O)NC1=O)C(=O)N[C@@H](CCCNC(=N)N)C(=O)N[C@@H](C(C)C)C(=O)N[C@@H](Cc1c[nH]cn1)C(=O)N[C@H](C(=O)NCC(=O)O)CSSC[C@H](NC(=O)[C@@H]1CCCN1)C(=O)N[C@@H](CCC(=O)O)C(=O)N2` [5ji4_A7.B9B2] (H-PCECTILPGWHFLTSSAECARLCDRLGLRTCRVHCG-OH; disulfide 2-35, 4-19, 23-31), for which, in the test with HtrA1, the ELISA s/n was determined as 7.0 and the ELISA signal was found to be 3.67.
The like results for `CC[C@H](C)[C@@H]1NC(=O)[C@H](CO)NC(=O)[C@@H]2CSSC[C@H](NC(=O)[C@H](CCC(=O)O)NC(=O)[C@H](C)NC(=O)[C@H](CO)NC(=O)[C@H](CO)NC(=O)[C@H]([C@@H](C)O)NC(=O)[C@H](CC(C)C)NC(=O)[C@H](Cc3ccccc3)NC(=O)[C@H](Cc3c[nH]cn3)NC(=O)[C@H](Cc3c[nH]c4ccccc34)NC(=O)CNC(=O)[C@H](CCCNC(=N)N)NC(=O)[C@H](CC(C)C)NC1=O)C(=O)N[C@@H](CCC(=O)O)C(=O)N[C@@H](CCCNC(=N)N)C(=O)N[C@@H](CC(C)C)C(=O)N[C@H]1CSSC[C@H](NC(=O)[C@H]([C@@H](C)O)NC(=O)[C@H](CCCNC(=N)N)NC(=O)[C@H](CC(C)C)NC(=O)CNC(=O)[C@H](CC(C)C)NC(=O)[C@H](CCCNC(=N)N)NC(=O)[C@H](CC(=O)O)NC1=O)C(=O)N[C@@H](CCCNC(=N)N)C(=O)N[C@@H]([C@@H](C)CC)C(=O)N[C@@H](Cc1c[nH]cn1)C(=O)N[C@H](C(=O)NCC(=O)O)CSSC[C@H](NC(=O)[C@@H]1CCCN1)C(=O)N[C@@H](CCC(=O)O)C(=O)N2` [5ji4_A7.D7B2] (H-PCECSILRGWHFLTSSAECERLCDRLGLRTCRIHCG-OH; disulfide 2-35, 4-19, 23-31) were, in that order, 5.3 and 3.45.
The matching figures for `CC[C@H](C)[C@@H]1NC(=O)[C@H]([C@@H](C)O)NC(=O)[C@@H]2CSSC[C@H](NC(=O)[C@H](CCC(=O)O)NC(=O)[C@H](C)NC(=O)[C@H](CO)NC(=O)[C@H](CO)NC(=O)[C@H]([C@@H](C)O)NC(=O)[C@H](CC(C)C)NC(=O)[C@H](Cc3ccccc3)NC(=O)[C@H](Cc3ccc(O)cc3)NC(=O)[C@H](Cc3c[nH]c4ccccc34)NC(=O)CNC(=O)[C@@H]3CCCN3C(=O)[C@H](CC(C)C)NC1=O)C(=O)N[C@@H](CCC(=O)O)C(=O)N[C@@H](CCCNC(=N)N)C(=O)N[C@@H](CC(C)C)C(=O)N[C@H]1CSSC[C@H](NC(=O)[C@H]([C@@H](C)O)NC(=O)[C@H](CCCNC(=N)N)NC(=O)[C@H](CC(C)C)NC(=O)CNC(=O)[C@H](CC(C)C)NC(=O)[C@H](CCCNC(=N)N)NC(=O)[C@H](CC(=O)O)NC1=O)C(=O)N[C@@H](CCCNC(=N)N)C(=O)N[C@@H](C(C)C)C(=O)N[C@@H](Cc1c[nH]cn1)C(=O)N[C@H](C(=O)NCC(=O)O)CSSC[C@H](NC(=O)[C@@H]1CCCN1)C(=O)N[C@@H](CCC(=O)O)C(=O)N2` [5ji4_A7.H5B2] (H-PCECTILPGWYFLTSSAECERLCDRLGLRTCRVHCG-OH; disulfide 2-35, 4-19, 23-31): 7.6 and 3.59.
For the molecule `CC[C@H](C)[C@@H]1NC(=O)[C@H](CCCNC(=N)N)NC(=O)[C@@H]2CSSC[C@H](NC(=O)[C@H](CC(C)C)NC(=O)[C@H](CCCNC(=N)N)NC(=O)[C@H](C)NC(=O)[C@@H]3CSSC[C@H](NC(=O)[C@H](CCC(=O)O)NC(=O)[C@@H](NC(=O)[C@@H]4CCCN4)CSSC[C@@H](C(=O)NCC(=O)O)NC(=O)[C@H](Cc4c[nH]cn4)NC1=O)C(=O)N[C@@H](CO)C(=O)N[C@@H]([C@@H](C)CC)C(=O)N[C@@H](CC(C)C)C(=O)N1CCC[C@H]1C(=O)NCC(=O)N[C@@H](Cc1c[nH]c4ccccc14)C(=O)N[C@@H](Cc1c[nH]cn1)C(=O)N[C@@H](Cc1ccccc1)C(=O)N[C@@H](CC(C)C)C(=O)N[C@@H]([C@@H](C)O)C(=O)N[C@@H](CO)C(=O)N[C@@H](CO)C(=O)N[C@@H](C)C(=O)N[C@@H](CCC(=O)O)C(=O)N3)C(=O)N[C@@H](CC(=O)O)C(=O)N[C@@H](CCCNC(=N)N)C(=O)N[C@@H](CC(C)C)C(=O)NCC(=O)N[C@@H](CC(C)C)C(=O)N[C@@H](CCCNC(=N)N)C(=O)N[C@@H]([C@@H](C)O)C(=O)N2` [5ji4_A7.c1] (H-PCECSILPGWHFLTSSAECARLCDRLGLRTCRIHCG-OH; disulfide 2-35, 4-19, 23-31), in the test with HtrA1, the ELISA s/n worked out at 7.5 and the ELISA signal is 3.55.
In the test with CD8α, “PAMLLQRNRPYGLLPEECERLCRKLGVTTACHCG [CD8α clone 1, phage clone, 5JI4 library, CD8α panning]” had a S/N of 39.9 and an ELISA of 4.75.
Consider “PCACDVNGETYTVSSSEECERLCTWWYFVVCRVHCG [CD8α clone 5, phage clone, 5JI4 library, CD8α panning]”, for which, in the test with CD8α, the S/N amounted to 3.0 and the ELISA is given as 0.282.
On to “PCDCDVNGETYTVSSSEECEPLCLNWLSSLCRVHCG [CD8α clone 3, phage clone, 5JI4 library, CD8α panning]”, for which, in the test on CD8α, the S/N was 37.9 and the ELISA is 3.371.
The like results for “PCECDLNGETYTVSSSEECERLCSWYIQYVCRVHCG [CD8α clone 6, phage clone, 5JI4 library, CD8α panning]” were, in that order, 2.2 and 0.194.
Consider “PCECDVNGETYTVSSSEECEQDSDCLAGWVCRVHCG [CD8α clone 7, phage clone, 5JI4 library, CD8α panning]”, for which, in the test on CD8α, the S/N came out at 34.2 and the ELISA is recorded as 3.252.
In the test with CD8α, “PCECDVNGETYTVSSSEECERCQDWLFYLCRVHCG [CD8α clone 4, phage clone, 5JI4 library, CD8α panning]” showed a S/N of 35.6 and an ELISA of 3.525.
“PCECTILRGWHFLTSSAECERLCRKLGVTNCRVHCG [HtrA1 clone 1, phage clone, 5JI4 library, HtrA1 panning; sole HtrA1 hit, probably 5ji4-A7]” gave a S/N with HtrA1 (phage spot ELISA signal/noise, S3 Table sheet HtrA1) of 8.86. For the same molecule, the ELISA with HtrA1 (phage spot ELISA signal, S3 Table sheet HtrA1) is listed as 1.0205.
